Measurements published in patent US6008019A, “Plasminogen activator from saliva of the vampire bat” (Schering Aktiengesellschaft, priority 1989, dated 1999).
Where two headings read alike, the source gives them in different places. Where a SMILES comes first, the peptide text is derived from it. [ ]: non-standard residue; d: D form. The star is where a group is joined. pNA = O=[N+]([O-])c1ccc(N*)cc1; pGlu = O=C1CC[C@@H](C(=O)O)N1

Tests used:
Urokinase [1] = target: T1, Urokinase (Homo sapiens, UniProt P00749); test: Km determination of amidolytic chromogenic substrates with urokinase; type: biochemical; conditions: 3 units per hole, 100 mM Tris pH 8.0/100 mM NaCl/0.01% Tween 80, 37° C., Lineweaver-Burk plot
Experimental: (§1) In a 96-hole plate, respectively 90 μl of 100 mM Tris pH 8.0/100 mM NaCl/0.01% "Tween" 80 and 50 μl of the corresponding chromogenic substrate (all from Kabi Vitrum, Stockholm, Sweden) in the final concentrations of 0.03/0.06/0.1/0.3/0.6 and 1 mM are incubated with 10 μl (3 units per hole) of the corresponding plasminogen activator at 37° C., and the thus-released p-nitroaniline is determined photometrically at 405 nm at various points in time between 0-7 hours. The resultant data are evaluated with the aid of a Lineweaver-Burk plot, and the Km value is determined (Segel, I. H., Enzyme Kinetics, John Wiley and Sons, New York). The following chromogenic substrates were utilized:

Urokinase [2] = target: T1, Urokinase; conditions: literature value (Friedberger 1982), read-out: Km (value in parentheses, from the literature); cited from earlier work
[3] = target: T2, t-PA (tissue-type plasminogen activator) (Homo sapiens, UniProt P00750); test: Km determination of amidolytic chromogenic substrates with t-PA; type: biochemical; conditions: 3 units per hole, 100 mM Tris pH 8.0/100 mM NaCl/0.01% Tween 80, 37° C., Lineweaver-Burk plot
Experimental: as §1

[4] = target: T2, t-PA (tissue-type plasminogen activator); conditions: literature value (Friedberger 1982), read-out: Km (value in parentheses, from the literature); cited from earlier work

T2 sequence (P00750 36-562): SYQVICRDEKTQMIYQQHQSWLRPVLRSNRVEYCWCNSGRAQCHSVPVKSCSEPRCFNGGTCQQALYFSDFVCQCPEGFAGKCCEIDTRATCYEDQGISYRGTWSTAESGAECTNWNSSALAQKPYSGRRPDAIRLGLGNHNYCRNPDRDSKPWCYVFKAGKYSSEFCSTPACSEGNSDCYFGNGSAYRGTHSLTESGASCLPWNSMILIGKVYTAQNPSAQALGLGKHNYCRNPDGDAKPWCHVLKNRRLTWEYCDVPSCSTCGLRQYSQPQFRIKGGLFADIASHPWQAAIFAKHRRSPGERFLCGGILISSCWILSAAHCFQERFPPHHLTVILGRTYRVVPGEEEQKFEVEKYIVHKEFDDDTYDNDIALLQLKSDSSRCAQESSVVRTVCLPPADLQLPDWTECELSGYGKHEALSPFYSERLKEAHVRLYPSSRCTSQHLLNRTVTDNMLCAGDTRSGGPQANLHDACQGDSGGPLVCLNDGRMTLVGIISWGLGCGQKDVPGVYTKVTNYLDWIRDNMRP

Row | SMILES | Km (Urokinase [1]) | Km (Urokinase [2]) | Km [3] | Km (Urokinase [1]; read-out: Km) | Km [4]
1 | N=C(N)NCCC[C@H](NC(=O)CNC(=O)[C@@H]1CCC(=O)N1)C(=O)Nc1ccc([N+](=O)[O-])cc1 [S-2444, <Glu-Gly-Arg-pNA] ([pGlu]-Gly-Arg-pNA) | 100 µM | 90 µM | – | – | –
2 | CC[C@@H](C)[C@@H](N)C(=O)N1CCC[C@H]1C(=O)N[C@@H](CCCNC(=N)N)C(=O)Nc1ccc([N+](=O)[O-])cc1 [S-2288, H-D-Ile-Pro-Arg-pNA] (H-[dI]-Pro-Arg-pNA) | – | – | 700 µM | 400 µM | 1000 µM
